We go through 4 molecules from patent publication US10959432B2, “Microbiocidal oxadiazole derivatives” (Syngenta Participations AG, priority 2016, dated 2021).

Data set [1] deals with Puccinia recondita f. sp. tritici. In words: Fungicidal activity against Puccinia recondita f. sp. tritici / wheat / leaf disc preventative (brown rust). As to conditions: foliar, 200 ppm in the applied formulation, wheat leaf segments cv. Kanzler, preventative (inoculated 1 day after application), assessed 7 to 9 days after application, read-out: disease control compared to untreated control leaf disks. The class given is in vivo. In outline:
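Preventative leaf-segment test: compound sprayed at 200 ppm onto wheat (cv. Kanzler) segments, brown rust spores applied 1 day after. Kept at 19C and 75% rh under 12 h light/dark cycles; disease control versus untreated check read 7 to 9 days post-application.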

Data set [2] shares this test system. Briefly: Fungicidal activity against Puccinia recondita f. sp. tritici / wheat / leaf disc curative (brown rust). Particulars: foliar, 200 ppm in the applied formulation, wheat leaf segments cv. Kanzler, curative (applied 1 day after inoculation), assessed 6 to 8 days after application, read-out: disease control compared to untreated control leaf disks. Format: in vivo. Put shortly: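 Curative test: compound, diluted from DMSO stock into water, applied one day after spore inoculation of wheat (cv. Kanzler) leaf segments kept on agar in darkness at 19° C. and 75% RH. Climate-cabinet incubation (19° C., 75% RH, 12 h photoperiod); disease control relative to untreated read 6–8 days post-application.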

Another data set relates to Phakopsora pachyrhizi. Briefly: Fungicidal activity against Phakopsora pachyrhizi / soybean / leaf disc preventative (Asian soybean rust). The class given is in vivo. Particulars: foliar, 200 ppm in the applied formulation, soybean leaf disks, preventative (inoculated one day after application), assessed 12 to 14 days after application, read-out: disease control compared to untreated control leaf disks. Put shortly: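 Preventative test: compound applied to soybean leaf discs a day before spore inoculation of the lower surface. Discs kept at 20° C and 75% rh, first 24-36 h in darkness, then under 12 h light/day; disease control relative to untreated discs rated 12 to 14 days post-application.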

In data set [3] the test system is Glomerella laqenarium (Colletotrichum lagenarium). Briefly: Fungicidal activity against Glomerella lagenarium (Colletotrichum lagenarium) liquid culture / cucumber / preventative (anthracnose). Format: cell-based. Particulars: Colletotrichum orbiculare; 20 ppm in the applied formulation; liquid culture in PDB, 24° C., 3 to 4 days after application; read-out: disease control compared to untreated control (inhibition of growth measured photometrically). In outline: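 Test compound, applied from DMSO solution, is combined with PDB containing conidia taken from cryogenic storage. After 3–4 days at 24 °C, growth is measured photometrically and antifungal activity expressed as percent relative to untreated control.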

The test system of another data set is Uromyces viciae-fabae. Briefly: Fungicidal activity against Uromyces viciae-fabae / field bean / leaf disc preventative (faba-bean rust). The class given is in vivo. Particulars: foliar, 288 h, 100 ppm in the applied formulation, field bean leaf discs, preventative (inoculated two hours after application), assessed 12 days after application, read-out: disease control compared to untreated control leaf discs. In outline:
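Field bean leaf discs on water agar treated with 10 μl compound in acetone plus spreader, then spray-inoculated on the lower surface with Uromyces viciae-fabae spores 2 h later. Incubation at 22 °C, 18 h day, 70% RH; percent disease control versus untreated scored 12 days after application, compounds at 100 ppm.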

`CN(C(=O)c1ccc(-c2noc(C(F)(F)F)n2)cc1)c1ncn[nH]1` [Compound 5a.5, N-methyl-N-(1H-1,2,4-triazol-5-yl)-4-[5-(trifluoromethyl)-1,2,4-oxadiazol-3-yl]benzamide] showed a melting point of 125 to 128 °C. The pest or weed control at 200 ppm in data set [1] was at least 80%. Moreover, the pest or weed control at 200 ppm in data set [2] is at least 80%. For the same molecule, the pest or weed control at 200 ppm in the data set on Phakopsora pachyrhizi was at least 80%. Moreover, the inhibition at 20 ppm in data set [3] was at least 80%. Further, the pest or weed control at 100 ppm in the data set on Uromyces viciae-fabae is at least 80%.

For the molecule `O=C(NCc1cnc(Cl)s1)c1ccc(-c2noc(C(F)(F)F)n2)cc1F` [Compound 5b.14, N-[(2-chlorothiazol-5-yl)methyl]-2-fluoro-4-[5-(trifluoromethyl)-1,2,4-oxadiazol-3-yl]benzamide], the melting point was 127.8 to 130.8 °C. Also, in data set [1], the pest or weed control at 200 ppm is at least 80%. In addition, the pest or weed control at 200 ppm in data set [2] was at least 80%. The pest or weed control at 200 ppm in the data set with Phakopsora pachyrhizi is at least 80%. Besides, the inhibition at 20 ppm in data set [3] was at least 80%. Further, in the data set on Uromyces viciae-fabae, the pest or weed control at 100 ppm is at least 80%.

As for `Cc1nc(CN(C)C(=O)c2ccc(-c3noc(C(F)(F)F)n3)cc2F)cs1` [Compound 5b.15, 2-fluoro-N-methyl-N-[(2-methylthiazol-4-yl)methyl]-4-[5-(trifluoromethyl)-1,2,4-oxadiazol-3-yl]benzamide], the melting point lay in the range of 96.3 to 98.4 °C. Also, the pest or weed control at 200 ppm in data set [1] was at least 80%. In addition, the pest or weed control at 200 ppm in data set [2] was at least 80%. The pest or weed control at 200 ppm in the data set with Phakopsora pachyrhizi is at least 80%. In data set [3], the inhibition at 20 ppm is at least 80%. Moreover, the pest or weed control at 100 ppm in the data set on Uromyces viciae-fabae is at least 80%.

In turn, `N#CC(NC(=O)c1ccc(-c2noc(C(F)(F)F)n2)cc1F)c1cccs1` (stereo not drawn) [Compound 5b.20, N-[cyano(2-thienyl)methyl]-2-fluoro-4-[5-(trifluoromethyl)-1,2,4-oxadiazol-3-yl]benzamide] returned a melting point of 138.1 to 139.2 °C. Besides, in data set [1], the pest or weed control at 200 ppm is at least 80%. The pest or weed control at 200 ppm in data set [2] was at least 80%. In addition, the pest or weed control at 200 ppm with Phakopsora pachyrhizi is at least 80%. The inhibition at 20 ppm in data set [3] is at least 80%. Also, in the data set on Uromyces viciae-fabae, the pest or weed control at 100 ppm is at least 80%.
